In patent publication US9078852B2, “Retinaldehyde in the treatment of obesity, diabetes and other conditions” (The Brigham and Women's Hospital, Inc., priority 2008, dated 2015):
Read-outs that look alike come from different tables or passages of the source.

Columns and labels:
[1] = tested on: ob/ob mice; experiment: ob/ob mice, intraperitoneal administration, 3 weeks; type: in vivo, mouse; details: for RBP4 plasma levels as compared to vehicle / percentage of subcutaneous fat relative to total body fat: retinoids 500 nM
Text: The Standing Committee On Animals at Harvard Medical School approved all protocols.
MRI data (1 mm slices) obtained on a Bruker Avance 500 wide bore spectrometer (11.7 T; 500 MHz for proton) fitted with a gradient amplifier and a 30 mm “birdcage” transmitter/receiver coil was processed with Paravision™ software. Spin Echo parameters included TI weighted images: TE=15 ms and TR=300 ms, matrix=256, FOV=30 mm; RARE images: TE=51 ms, TR=2500 ms, matrix=256, FOV=30 mm. Abdominal fat measurements used axial slices (n=8) at the level of the left renal pelvis.
After acclimation to powdered high fat diet (4 d), food/water intake, oxygen consumption, and carbon dioxide production were measured in metabolic cages (Ancare, Charles River Laboratories). Calculated metabolic rate (Weir equation) was expressed per g body weight. We performed insulin (ITT) and glucose tolerance tests (GTT) after food deprivation (16 h) using intraperitoneal insulin injection (ITT, 0.1 U/ml 0.005 ml/g body weight) or single 25% dextrose (GTT, 0.004 mL/g body weight) administration and glucometer measurements (Accu-Chek Advantage, Roche).
After 3 weeks, subcutaneous fat mass was quantified by magnetic resonance imaging (MRI).

[2] = tested on: rats; details: cited from earlier work
[3] = tested on: 3T3-L1 mouse pre-adipocyte; experiment: 3T3-L1 pre-adipocyte differentiation (adipogenesis) assay; type: cell-based; details: for adiponectin expression, compound added early: added Day 0 of differentiation; for adiponectin expression / adipogenesis, compound added later: added Day 2 of differentiation
Description: We cultured and differentiated mouse 3T3-L1 preadipocytes and primary fibroblasts isolated from 16-days old embryos using standard procedures (Green, et al., Cell 3:127-33 (1974)). After reaching confluence (DMEM, high glucose, 10% calf serum, Day 0), cells were differentiated (3-isobutyl-1-methylxanthine 0.5 mM, dexamethasone 1 μM, insulin 1.7 μM) for 48 h before media replacement every 48 h (DMEM, 10% FCS insulin, 1.7 μM) for 7 days.
Northern blotting was performed as before with HyBond (Amersham; Ziouzenkova, et al., Proc. Natl. Acad. Sci. USA 100:2730-5 (2003)).
(§1) We determined triglyceride content in lysed cells (RIPA buffer, complete protease inhibitor cocktail, Roche) using an enzymatic colorimetric assay (Wako, Japan) and adiponectin levels via ELISA (R&D, Minneapolis). For Western blotting, cell lysates, plasma, and tissue lysates underwent reducing gel separation (10% acrylamide) and hybridization with RXR (Santa Cruz, Calif.), mouse RBP4 (Alpco), or UCP1 (Chemicon) antibodies.
To test Rald effects on adipogenesis, we performed 3T3-L1 mouse pre-adipocyte differentiation assays in the presence of Rald concentrations similar to those found in fat in vivo. Rald levels as low as 100 nM suppressed mRNA expression of the adipogenic target genes CD36, adiponectin, and aP2. These repressive effects of Rald were evident in a concentration-dependent manner in either the presence or absence of the PPARγ agonist BRL49653 (BRL), a potent adipogenic stimulus.

[4] = target: T1, Human full-length PPARγ2 (Homo sapiens, UniProt P37231); experiment: Scintillation proximity assay / cell-free radioligand displacement; type: binding
T1 sequence (P37231 1-505): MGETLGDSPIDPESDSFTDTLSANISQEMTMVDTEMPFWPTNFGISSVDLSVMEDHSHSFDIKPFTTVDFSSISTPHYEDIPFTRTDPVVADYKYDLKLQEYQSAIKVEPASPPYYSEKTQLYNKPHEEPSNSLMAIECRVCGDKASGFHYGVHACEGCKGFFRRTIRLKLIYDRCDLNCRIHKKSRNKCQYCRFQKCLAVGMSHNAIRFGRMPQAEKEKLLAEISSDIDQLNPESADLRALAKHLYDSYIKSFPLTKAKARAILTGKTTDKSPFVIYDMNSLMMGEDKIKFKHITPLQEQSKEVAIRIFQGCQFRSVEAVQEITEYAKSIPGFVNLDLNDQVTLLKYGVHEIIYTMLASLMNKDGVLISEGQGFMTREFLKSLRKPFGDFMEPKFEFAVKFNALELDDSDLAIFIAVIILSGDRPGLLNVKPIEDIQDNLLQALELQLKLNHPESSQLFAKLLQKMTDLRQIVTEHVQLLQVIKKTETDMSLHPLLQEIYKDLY
Description: Scintillation proximity assays were performed on our behalf.
(§2) Given these effects of Rald on RXR-LBD activation, we next tested if Rald could inhibit activation of a transfected canonical PPAR response element (PPRE) luciferase construct after RXR and/or PPARγ transfection and respective agonist stimulation (9-cis RA or BRL). […] Similar effects were evident in cell-based PPARγ-LBD assays in the presence of BRL. Thus, Rald suppresses adipogenic gene expression, adipocyte lipid accumulation, RXRα and PPARγ-LBD activation, as well as PPRE responses, all at concentrations (<1 μM) that overlap levels present in rodent fat in vivo. Importantly, these Rald effects diverge from the responses seen to RA.

[5] = target: T2, RARα-LBD (Homo sapiens, UniProt P10276); experiment: LBD-GAL4 transfection assay, RARα-LBD; type: cell-based
T2 construct: expressed in transfected cells; host or cells: NIH 3T3 cells
T2 sequence (P10276 183-417 limits assumed): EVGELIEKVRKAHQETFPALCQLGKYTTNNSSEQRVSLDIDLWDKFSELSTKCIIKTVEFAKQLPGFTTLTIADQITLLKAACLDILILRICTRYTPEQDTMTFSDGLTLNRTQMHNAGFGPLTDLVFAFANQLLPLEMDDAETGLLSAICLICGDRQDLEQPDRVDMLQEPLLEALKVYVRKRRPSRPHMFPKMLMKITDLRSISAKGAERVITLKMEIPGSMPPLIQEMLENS
Text: (§3) Transient transfection of NIH 3T3 cells (2.3×10^4 cells, 24-well plates) with PCMX-β-galactosidase and LBD/yeast Gal 4/luciferase constructs used Fugene (Roche) as before (Ziouzenkova, et al., Proc. Natl. Acad. Sci. USA 100:2730-5 (2003)). For siRNA transfections, 3T3-L1 cells (90% confluence, antibiotic-free DMEM, 10% CS, 24-well plates) received control (sequences C, D) or specific siRXRα and siRXRβ sequences (Santa Cruz) using Lipofectamine 2000/OptiMEM medium (Invitrogen) and media supplemented with 10% FBS 5 h post-transfection. Western blotting evaluated RXR levels post-transfection (48 h). After transfection (48 h), we induced differentiation before analysis after 7 days.
(§4) Given Rald's suppression of PPARγ agonist-stimulated adipogenesis and adiponectin release, we tested if Rald altered activation of RAR and RXR, and if it did so in a way distinct from other retinoids. Ligand binding domain (LBD)-GAL4 transfection assays were performed in 3T3-NIH fibroblasts in the presence or absence of known specific nuclear receptor agonists and/or Rald. […] Rald alone had no effect on RXRα-LBD activation. […] Thus, Rald plays a distinct, independent role from RA in RXRα-LBD regulation, suppressing ligand-mediated activation.

[6] = target: T3, RXRα-LBD (Homo sapiens, UniProt P19793); experiment: LBD-GAL4 transfection assay, RXRα-LBD; type: cell-based
T3 construct: expressed in transfected cells; host or cells: NIH 3T3 cells
T3 sequence (P19793 227-458 limits assumed): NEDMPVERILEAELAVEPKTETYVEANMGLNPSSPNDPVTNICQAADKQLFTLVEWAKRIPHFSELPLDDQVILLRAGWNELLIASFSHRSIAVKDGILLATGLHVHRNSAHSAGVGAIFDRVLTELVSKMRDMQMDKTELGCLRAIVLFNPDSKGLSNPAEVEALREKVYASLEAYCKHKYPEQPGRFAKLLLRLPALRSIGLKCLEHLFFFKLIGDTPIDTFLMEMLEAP
Text: as §3, §4

[7] = tested on: PPAR response element (PPRE); experiment: PPRE luciferase construct after RXR and/or PPARγ transfection; type: cell-based
Text: as §3, §2

[8] = target: T4, PPARγ-LBD (Homo sapiens, UniProt P37231); experiment: Cell-based PPARγ-LBD assay; details: presence of BRL; concentrations <1 μM
T4 construct: expressed in transfected cells; host or cells: NIH 3T3 cells
T4 sequence (P37231 238-503 limits assumed): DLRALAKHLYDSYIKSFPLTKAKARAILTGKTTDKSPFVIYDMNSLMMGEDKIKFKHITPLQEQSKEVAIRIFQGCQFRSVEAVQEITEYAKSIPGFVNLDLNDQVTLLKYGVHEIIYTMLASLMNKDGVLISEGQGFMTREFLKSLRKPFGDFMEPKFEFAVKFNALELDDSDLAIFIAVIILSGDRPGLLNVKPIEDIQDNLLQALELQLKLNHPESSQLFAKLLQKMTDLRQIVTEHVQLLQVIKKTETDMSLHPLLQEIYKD
Text: as §3, §2

[9] = tested on: RXRα/RXRβ siRNA-treated 3T3-L1 adipocytes; experiment: 3T3-L1 adipogenesis assay after RXRα/RXRβ siRNA; type: cell-based, mouse; details: RXRα/RXRβ siRNA 48 hours, differentiation 7 days
Text: as §3, §1
To evaluate Rald effects in an RXR loss of function model, 3T3-L1 adipogenesis assays in the presence of Rald were repeated but after first decreasing RXRα and RXRβ levels using siRNA to each RXR isotype. […]

[10] = tested on: preadipocytes isolated from human visceral fat depots; experiment: Adipogenesis in preadipocytes from human visceral fat; type: cell-based
[11] = summary statement, unit inferred, read-out: Kd, receptor binding
[12] = MRI after 3 weeks, i.p., citral 10 μM
[13] = cell-free radioligand displacement, read-out: Kd, displacement of high affinity PPARγ agonists

In the case of `CC(C)=CCCC(C)=CC=O` [citral, 3,7-dimethyl-2,6-octadienal], the “RBP4 plasma levels as compared to vehicle” value ([1]; i.p., citral 10 μM) is listed as “significantly suppressed”, the tolerability ([2]; high doses, rats) is listed as “well tolerated” and the “body weight versus citral free diet” value ([2]; rats fed a diet with citral) is listed as “weighed less”.

With `CN(CCOc1ccc(CC2SC(=O)NC2=O)cc1)c1ccccn1` (stereo not drawn) [BRL, rosiglitazone, reference compound] the “adiponectin levels induced by BRL stimulation” value [3] was “six-fold increase”.

With `CC1=C(/C=C/C(C)=C/C=C/C(C)=C/C=O)C(C)(C)CCC1` [Rald, retinaldehyde] the Kd [4, 11] was 11.9 ± 1.9 µM, the “adiponectin levels induced by BRL stimulation” value [3] was “mitigated” and the “mRNA expression of adipogenic target genes CD36, adiponectin, aP2” value ([3]; Rald levels as low as 100 nM, presence or absence of BRL) was “suppressed”. The lipid accumulation ([3]; absence and presence of BRL) was “decreased”, the “adiponectin expression, compound added early” value [3] was “inhibited” and the “adiponectin expression / adipogenesis, compound added later” value (“adiponectin expression / adipogenesis” below) [3] was “also inhibited adipogenesis”. The adiponectin secretion ([3]; stimulation early or late, concentration-dependent) was “decreased”, the RARα-LBD activation ([5]; compound alone, 3T3-NIH fibroblasts) was “weakly activated” and the “RARα-LBD activation by 9-cis RA” value ([5]; in presence of 9-cis RA) was “did not alter”. The RXRα-LBD activation ([6]; compound alone) was “no effect”, the “RXRα-LBD activation by 9-cis RA” value ([6]; in presence of 9-cis RA) was “significantly inhibited” and the “inhibition of PPRE activation” value ([7]; PPARγ and RXR co-transfection and PPARγ agonist stimulation) was 60%. The “PPRE activation by both agonists (9-cis RA or BRL)” value ([7]; RXR and/or PPARγ transfection) was “significantly inhibited”, the PPARγ-LBD activation [8] was “suppresses” and the “adiponectin secretion after siRNA exposure” value [9] was “no additional effects”. For the same compound, the “triglyceride accumulation after siRNA exposure” value [9] was “further decreased”, the subcutaneous fat ([1]; MRI after 3 weeks, i.p. 500 nM) was “significantly less subcutaneous fat” and the “percentage of subcutaneous fat relative to total body fat” value [1, 12] was 15.5±0.6%. The glucose tolerance ([1]; i.p., Rald 500 nM, citral 10 μM) was “improved”, the “RBP4 plasma levels as compared to vehicle” value ([1]; i.p., citral 10 μM) was “significantly suppressed” and the adipogenesis [10] was “repressed”.

In the case of `CC1=C(/C=C/C(C)=C\C=C\C(C)=C\C(=O)O)C(C)(C)CCC1` [9-cis RA, reference compound], the “adiponectin expression, compound added early” value [3] is reported as “inhibited” and the “adiponectin expression / adipogenesis” value [3] is reported as “no effect”.

Compound `CC1=C(/C=C/C(C)=C\C=C\C(C)=C\C=O)C(C)(C)CCC1` [9-cis Rald] has a Kd [4, 13] of 5.9 ± 0.7 µM and a Kd [4, 11] of 5.9 ± 0.7 µM.

With `CC1=C(/C=C/C(C)=C/C=C/C(C)=C/CO)C(C)(C)CCC1` [vitamin A, retinol, reference compound] the “percentage of subcutaneous fat relative to total body fat” value [1, 12] was 17.3±1.3% and the “RBP4 plasma levels as compared to vehicle” value ([1]; i.p., citral 10 μM) was “increased RBP4 plasma levels two-fold”.

With `CC1=C(/C=C/C(C)=C/C=C/C(C)=C/C(=O)O)C(C)(C)CCC1` [all-trans RA, Retinoic acid, reference compound] the “adiponectin expression / adipogenesis” value [3] was “no effect”, the “percentage of subcutaneous fat relative to total body fat” value [1, 12] was 19.1±1.6% and the “RBP4 plasma levels as compared to vehicle” value ([1]; i.p., citral 10 μM) was “no effect”.

Work on `CC1=C(/C=C/C(C)=C/C=C/C(C)=C/C=O)C(C)(C)CCC1` [13-cis Rald] yielded a Kd [4, 13] of 9.7 ± 1.2 µM and a Kd [4, 11] of 9.7 ± 1.2 µM.
